Test results from patent US20130217652A1, “SULFINYLBENZYL AND THIOBENZYL DERIVATIVES AS SPHINGOSINE 1-PHOSPHATE (S1P) RECEPTOR MODULATORS” (ALLERGAN, INC., priority 2012, published 2013).

Target: T1, human S1P1 receptor (Homo sapiens, UniProt P21453)
T1 construct: expressed in transfected cells; membranes used
Assay: GTP γ35S binding assay for S1P1 activity
Format: biochemical
Conditions: membranes of cells stably expressing the S1P1 receptor, test compounds 0.08 to 5,000 nM, 30 min at 25° C.
Method: Compounds were synthesized and tested for S1P1 activity using the GTP γ^35S binding assay. These compounds may be assessed for their ability to activate or block activation of the human S1P1 receptor in cells stably expressing the S1P1 receptor.
GTP γ^35S binding was measured in the medium containing (mM) HEPES 25, pH 7.4, MgCl2 10, NaCl 100, dithitothreitol 0.5, digitonin 0.003%, 0.2 nM GTP γ^35S, and 5 μg membrane protein in a volume of 150 μl. Test compounds were included in the concentration range from 0.08 to 5,000 nM unless indicated otherwise. Membranes were incubated with 100 μM 5′-adenylylimmidodiphosphate for 30 min, and subsequently with 10 μM GDP for 10 min on ice. Drug solutions and membrane were mixed, and then reactions were initiated by adding GTP γ^35S and continued for 30 min at 25° C. Reaction mixtures were filtered over Whatman GF/B filters under vacuum, and washed three times with 3 mL of ice-cold buffer (HEPES 25, pH 7.4, MgCl2 10 and NaCl 100). Filters were dried and mixed with scintillant, and counted for ^35S activity using a β-counter. Agonist-induced GTP γ^35S binding was obtained by subtracting that in the absence of agonist. Binding data were analyzed using a non-linear regression method. In case of antagonist assay, the reaction mixture contained 10 nM S1P in the presence of test antagonist at concentrations ranging from 0.08 to 5000 nM. […] Activity potency: S1P1 receptor from GTP γ^35S: nM, (EC50),

T1 sequence (P21453 whole entry): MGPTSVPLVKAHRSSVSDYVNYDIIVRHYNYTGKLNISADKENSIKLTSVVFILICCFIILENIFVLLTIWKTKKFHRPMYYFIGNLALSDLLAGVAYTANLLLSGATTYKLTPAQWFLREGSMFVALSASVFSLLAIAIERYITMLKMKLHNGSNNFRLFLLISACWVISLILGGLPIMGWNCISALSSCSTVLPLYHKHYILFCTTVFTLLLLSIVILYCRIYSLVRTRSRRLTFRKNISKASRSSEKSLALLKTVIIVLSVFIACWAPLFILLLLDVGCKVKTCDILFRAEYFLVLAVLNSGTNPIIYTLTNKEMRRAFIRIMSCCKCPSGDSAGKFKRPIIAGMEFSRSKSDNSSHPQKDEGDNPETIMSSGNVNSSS

Row | Structure (SMILES) | EC50 [µM]
1 | Cc1ccc(CC(CCCC[S+]([O-])c2ccc(CNCCC(=O)O)cc2)c2cccc(Cl)c2)cc1C (centres unmarked) [Compound 2, 3-[(4-{[5-(3-chlorophenyl)-6-(3,4-dimethylphenyl)hexyl]sulfinyl}benzyl)amino]propanoic acid] | 0.631
2 | Cc1ccc(CC(CCC[S+]([O-])c2ccc(CNCCC(=O)O)cc2)c2cccc(Cl)c2)cc1C (centres unmarked) [Compound 3, 3-[(4-{[4-(3-chlorophenyl)-5-(3,4-dimethylphenyl)pentyl]sulfinyl}benzyl)amino]propanoic acid] | 0.0817
3 | Cc1ccc(CC(CCCCSc2ccc(CNCCC(=O)O)cc2)c2cccc(Cl)c2)cc1C (centres unmarked) [Compound 1, 3-[(4-{[5-(3-chlorophenyl)-6-(3,4-dimethylphenyl)hexyl]thio}benzyl)amino]propanoic acid] | 0.159

Stronger by EC50, values ahead:

Row | EC50 [µM] | Structure (SMILES)
4 | 0.00265 | Cc1ccc(CC(CCCSc2ccc(CNCCCP(=O)(O)O)cc2)c2cc(F)cc(F)c2)cc1C (centres unmarked) [Compound 5, {3-[(4-{[4-(3,5-difluorophenyl)-5-(3,4-dimethylphenyl)pentyl]thio}benzyl)amino]propyl}phosphonic acid]
5 | 0.00076 | Cc1ccc(CC(CCCSc2ccc(CNCCCP(=O)(O)O)cc2)c2cccc(Cl)c2)cc1C (centres unmarked) [Compound 6, {3-[(4-{[4-(3-chlorophenyl)-5-(3,4-dimethylphenyl)pentyl]thio}benzyl)amino]propyl}phosphonic acid]
